Assay results: patent US8518889B2, “Method of treating cancer with antibodies against long-form leukotriene B4 receptor BLT2” (Korea University Research & Business Foundation, priority 2007, dated 2013)

Experiments:
LNCaP cells [1] = experiment: Hoechst 33258 staining; format: cell-based, human; conditions: 5 μM, 36 hr
Method: Prostate cancer cells grown in 6-well cluster dishes were stimulated with 5 μM LY255283 for 36 hr in serum free RPMI 1640. The cells were fixed for 10 min with 4% formaldehyde and stained with Hoechst 33258 (50 μg/ml) (Sigma) for 10 min at 37° C. and observed under fluorescence microscopy (Carl Zeiss).

[2] = tested on: 253J-BV cell (bladder cancer cell); experiment: morphological changes by light microscopy; format: cell-based, human; conditions: 1-10 μM, 48 hr
Method: Bladder cancer cells grown in 6 well-plate were treated with 10 μM LY255283, 1 uM U75302 for 48 hr. Cells were then viewed using light microscopy (×100). SV-HUC-1 cell (normal bladder cell) and 253J-BV cell (bladder cancer cell) were treated with different concentrations (1-10 μM) of LY255283 (BLT2 specific antagonist), U75302 (BLT1 specific antagonist) for 48 hr. […] But normal bladder cell line was not effect on morphological change treated with BLT antagonists.

Rat2-HO6 cells = experiment: experimental metastasis assay, lung metastasis driven by H-Ras^V12; format: in vivo, nude mice; conditions: intraperitoneal 3 and 5 days after cell injection, 21 days
Method: (§1) All experimental animals used in this study were treated according to guidelines approved by the Institutional Animal Care and Use Committee of Korea University. Female nude mice (Charles River, Wilmington, Mass.), four-weeks-old at the time of injection, were used in the experimental metastasis assay. Rat-2, Rat2-HO6, and Rat2-BLT2 cells (5×10^5 cells) were prepared for injection from cultures in logarithmic growth at the time of harvest. The cells were briefly treated with 0.025% trypsin and 0.1% EDTA in Hanks' balanced salt solution and quickly removed from trypsin by centrifugation, resuspended in saline containing LTB4, and injected within 1 hr in 0.1 ml into the lateral tail vein with a 26-gauge needle. For inhibitor experiments, U75302 and LY255283 (0.25 mg/kg for BLT1 antagonist and 2.5 mg/kg for BLT2 antagonist) was injected intraperitoneal ˜3 and 5 days after injection of cells that were pretreated with inhibitors. […]
(§2) In vivo lung metastasis driven by H-Ras^V12 (panel B of FIG. 2a) or BLT2 (panel C of FIG. 2a) was reduced by BLT2 inhibition (LY255283) based on the macroscopic and histologic appearance of lung. […] Mice were euthanized 21 days after cell injection, and the number of lung metastasis nodules and weight of lung was analyzed in each group. […] Metastasis survival was analyzed in Kaplan-Meyer plots.

eosinophil = conditions: 10 μM; cited from earlier work
LNCaP cells [3] = experiment: MTT assay, cell viability; format: cell-based, human; conditions: increasing concentration, 48 hr, serum free RPMI 1640
Method: The effect of LY255283, BLT2 antagonist, on cell viability was examined by MTT assay. PWR-1E cells were seeded at a density of 1.0×10^4 cells/well and LNCaP cells were seeded at a density of 1.5×10^4 cells/well in 96-well culture dishes. After 36 hr, the medium was replaced with serum free RPMI 1640 and cells were stimulated with DMSO or LY255283 of increasing concentration. MTT (1 mg/mu) was added at 48 hr after LY255283 treatment and after 4 hr of further incubation the medium was replaced with DMSO. Then cells were incubated at room temperature for 10 min. The spectrophotometric absorbance of the samples was determined by using Ultra Multifunctional Microplate Reader at 540 nm. LNCaP cells and PWR-1E cells were stimulated with LY255283 of various concentration in serum free RPM11640.

AsPC-1 cells = experiment: MTT assay, cell viability; format: cell-based, human; conditions: 2.5, 5 and 10 μM, 48 h
Method: (§3) To investigate the effect of the selective BLT2 antagonist LY255283 on pancreatic cancer cell proliferation and survival, cell viability was determined by MTT assay after Panc-1 and AsPC-1 cells were exposed to LY255283 for 48 hr.
(§4) Two human pancreatic cancer cell lines were used: Panc-1 and AsPC-1. Panc-1 cells were grown in DMEM, and AsPC-1 cells were grown in RPMl 1640.
(§5) Cells were plated in 96-well plates at a concentration of 10,000 cells/well. After incubation for 24 h, cells were serum-starved for 3 h, and then various concentrations (2.5 μM, 5 μM and 10 μM) of LY255283 were added. At the end of experiments, 25μ! of a 5 mg/ml MTT solution, diluted in PBS, was added into the 96-well plates. The plates were incubated at 37° C. in 5% CO2 atmosphere for 3 hr, allowing viable cells to reduce the yellow tetrazolium salt (MTT) into dark blue formazan crystals. At the end of the 3 h incubation, the MTT solution was removed and 100 μl of dimethyl sulfoxide was added to dissolve the formazan crystals. To ensure complete dissolution of the formazan crystals, the plates were vortexed gently at low speed for 10 min. The absorbance in individual wells was determined at 540 nm by a microplate reader.

Panc-1 cells = experiment: MTT assay, cell viability; format: cell-based, human; conditions: 2.5, 5 and 10 μM, 48 h
Method: as §3, §4, §5

Rat2-BLT2 cells = experiment: experimental metastasis assay, lung metastasis driven by BLT2; format: in vivo, nude mice; conditions: intraperitoneal 3 and 5 days after cell injection, 21 days
Method: as §1, §2

SMILES	nuclei condensation or fragmentation (Hoechst 33258) (LNCaP cells [1])	morphological change [2]	lung metastasis driven by H-Ras^V12 (Rat2-HO6 cells)	inhibit eosinophil chemotaxis (eosinophil)	LNCaP cell viability (MTT) (LNCaP cells [3])	cell viability (MTT), AsPC-3 as printed (AsPC-1 cells)	cell viability (MTT), Panc-1 (Panc-1 cells)	lung metastasis driven by BLT2 (Rat2-BLT2 cells)
CCc1cc(C(C)=O)c(O)cc1OCCCCCC(C)(C)c1nnn[nH]1 [LY255283, 1-[5-ethyl-2-hydroxy-4-[[6-methyl-6-(1H-tetrazol-5-yl)heptyl]oxy]phenyl]-ethanone]	Nuclei condensation of fragmentation was observed	exhibited membrane blebbing, detached from plate	significantly reduced	80%	dose dependent reduction	diminished cell viability in dose-dependent manner	diminished cell viability in dose-dependent manner	–
CCCCC/C=C\C[C@@H](O)/C=C/c1cccc(C[C@@H](O)CCCCO)n1 [U75302]	–	–	caused no suppression on metastasis	–	–	–	–	caused no suppression on metastasis
